Results published in patent US12582720B2, “Compound for preventing or treating lipid metabolism-related diseases” (Fudan University, priority 2020, dated 2026).
Read-outs that look alike come from different tables or passages of the source. One block for each molecule: values may come before it.

Legend:
[1] = biological target: LC3B (Homo sapiens, UniProt Q9GZQ8); experiment: MST detection of affinity activity with LC3B; type: binding; design: His8 (with TEV site) (N); made in house; host or cells: Escherichia coli BL21(DE3)pLysS
Description: The recombinant GST-LC3B proteins were prepared and purified, dialyzed into 1×PBS, and then labelled with the red fluorophore with the protein labeling kit RED-NHS (Nanotemper, cat. no. L001).
The MST experiments were performed using the Monolith NT.115 instrument (NanoTemper Technologies). The reaction buffer contains 20 mM HEPES, pH 7.4, 150 mM NaCl, and the protein concentration was 500 nM. The MST data were collected under 40% infrared laser power and 20% light-emitting diode power. The data were analyzed by Nanotemper software.

[2] = tested on: lipid droplets in 3T3-L1 fat precursor cell differentiated fat cells; experiment: Lipid droplets in 3T3-L1 fat precursor cell differentiated fat cells; type: cell-based, mouse; conditions: 3T3-L1 differentiated fat cells, 5 μM, 24 h
[3] = tested on: lipid droplets in wild type MEF cells; experiment: Reduction of OA-induced lipid droplets in wild type MEF cells (BODIPY 493/503 staining); type: cell-based, mouse; conditions: MEF, unconjugated compound 5 μM
Description: (5) OA-BSA stock solution was prepared into OA-BSA working solution (50× final concentration, 200 μM), and 40 μl of OA-BSA working solution was added to each well to induce lipid droplets. For the non-OA induction group, 40 μl of 10% BSA solution was added to the control well, and the amount of BSA was the same as that of the experimental group.
Compounds were formulated into DMSO stock solutions. Stock compounds were diluted with DMSO into the indicated concentrations of working solutions prior to use in the treatment of cells. After induction of the lipid droplets with OA for the indicated time, the test compounds were added to the cells respectively. Control wells were replaced with the equal volume of DMSO. Unless otherwise stated, the compounds were diluted into 10× solutions using the culture medium and added to the culture medium for 24 hours of incubation. Cells were treated with compounds in a 37° C. incubator with 5% CO2.
(3) The original medium in the multi-well plates was removed, washed and the cells was fixed, 1 ml of the BODIPY solution prepared in (1) was added to each well, and stained for 15 minutes. The staining solution was aspirated and washed with 1×PBS.
(5) The coverslips laid in the multi-well plates were removed, and imaged with the Zeiss 880 confocal microscope after mounted, and analyzed the size and number of lipid droplets with ImageJ.
Wild type MEF cells were cultured in a DMEM culture medium containing 10% FBS. Cells were plated according to the method as described above (12 well plate was plated with aseptic treated slides). When cells grew to a confluence of 60-70%, lipid droplets were induced with OA for 30 h according to the method as described above.
At the time point of 6th hour after initiation of induction, the cells were treated (treated for 24 hours) with Compound 1A or Compound 2A (compound concentrations were 50 μM, 15.8 μM, 5 μM, 1.58 μM, 0.5 μM, 0.158 μM) according to the method as described above.

[4] = tested on: lipid droplets in SH-SY5Y cells; experiment: Reduction of OA-induced lipid droplets in SH-SY5Y cells; type: cell-based, human; conditions: unconjugated compound 5 μM
Description: The reduction of lipid droplets in SH-SY5Y cells by Compound 1A and Compound 2A was detected by a method that was similar to Example 2, and the result was shown in FIG. 18.
The effects of unconjugated LC3 binding Compound A1, A5 and unconjugated lipid droplet probe ORBB […] respectively on lipid droplets in SH-SY5Y cells (FIG. 20A) and MEF cells (FIG. 20B) were detected by a method similar to Example 2.

[5] = tested on: lipid droplets in human normal liver cell line QSG7701; experiment: Endogenous lipid droplets in human normal liver cell line QSG7701; type: cell-based; conditions: QSG7701, no induction, 5 μM, 24 h
Description: 10% FBS+90% RPMI 1640 culture medium was used for cultivation, cell incubator culture condition of 37° C. and 5% CO2 was used. Cells were plated as 50 thousands/well (12 well plate was plated with aseptic treated slides). When cells grew to a confluence of 80-90%, the compound (Compound 1A or Compound 2A, at a concentration of 5 μM) was added for treatment, and LC3 binding Compound A1, A5, lipid droplet probe Sudan IV as well as DMSO acted as a control. […]. In the compounds of present disclosure, LC3 binding moiety was covalently linked with lipid droplet binding moiety, and thus could achieve the effect of reducing liver cell endogenous lipid droplet.

[6] = tested on: db/db mice; experiment: Effect of the compound on db/db mouse; type: in vivo
Description: Experimental animals: nineteen-week-old db/db male mice (C57BL/6J-Lepr^db/Lepr^db) were obtained from Shanghai Model Organisms Co., Ltd., and acclimatized for at least 1 week before experiments. The mice had ad libitum access to standard chow and water.
Normal control: The C57BL/6 male mice fed on standard irradiated chow diet (Shuyishuer Inc. cat. no. D12450J) from Changzhou Shuyishuer Biotechnology Co., Ltd. (Shuyishuer Inc.) were used as the normal control.
Mice were randomly divided into 7 groups, wherein 8 mice in each group, and the mice in each group were subjected to intraperitoneal injection to administer: (1) only vehicle (no DMSO) group: 0% DMSO+39% PEG300 (Selleck, cat. no. S6704)+5% Tween-80 (Selleck, cat. no. S6702)+56% distilled water, (2) DMSO group: 1% DMSO+39% PEG300+5% Tween-80+55% H2O (DMSO vehicle), (3) C3 group: Compound 3A was in DMSO vehicle, (4) C4 group: Compound 4A in DMSO vehicle, (5) SIII group: Sudan III DMSO vehicle, (6) GW5074 group: Compound A1 in DMSO vehicle, (7) DP group: Compound A5 in DMSO vehicle. For groups (3)-(7), the compound (30 mg/kg, administration volume 150 μL) was administered through intraperitoneally injection for consecutive 2 weeks, and once a day. The food and water intake were measured with an analytical electronic balance.
Bodyweight was weighed every day.
If time permitted, tail vein blood (30-50 μL) was collected every 1-3 days.
24 hours after the time point of the last injection, end point maxillary surface blood sampling was performed on each mouse. All mice were Euthanized by cervical dislocation, and then tissue sample (e.g., liver samples) were obtained and stored in Eppendorf tubes at −80° C. for assay.
12 days after initiation of administration, each mouse was scanned by a minispec nuclear magnetic resonance (NMR) instrument (Bruker LF50 II “Minispec” body composition analyzer, Bruker Optics) that was designed for experimental animals, and based on the measurement of solid and liquid parts of the samples, the body fat and lean body weight were determined by this device.
Serum: Tail vein blood samples (30-50 μL) were left to coagulate in […] blood collection tubes (Jiangsu Kangjian Medical Products Co., Ltd., model KJ002) at room temperature without interference, and then centrifuged at 2,000×g for 10 minutes at 4° C. to remove the clot. Supernatant was collected to obtain the serum.
Liver: Liver samples were obtained as described in (2). 100 mg of liver tissue was homogenized in 0.9 mL of absolute alcohol under ice-cold conditions, and then centrifuged (2,500 r.p.m/min, 10 min). Supernatant was collected, and then stored at −80° C.
The kits were used according to the instruction from manufacturer (TAG: TG kit, cat. no. A110-1-1; TC: T-CHO kit, cat. no. A111-1. FFA: NEFA kit, cat. No. A042-2-1; they were all from Nanjing Jiancheng Bioengineering Institute). TAG, TC and FFA levels in serum and liver samples were determined.
According to the lipidomic method as described above, the contents of liver total lipid, glycerolipid, sterol lipid, neutral sphingolipid and polar lipid were analyzed. The log 2-fold change (log2 FC) and statistical significance (p-value) relative to the DMSO group were calculated.

[7] = tested on: autophagosome-lipid droplet colocalization in MEF cells; experiment: Colocalization of autophagosome and lipid droplets in mCherry-LC3B transfected MEF cells; type: cell-based, mouse; conditions: 5 μM, 3 h, compared to DMSO control
Description: (1) In MEF cells, mCherry-LC3B was expressed by cDNA plasmid transfection.
(2) OA was added to the culture medium 30 hours after transfection to induce lipid droplets.
(3) Compounds were added to treat cells 6 hours after induction.
(4) 3 hours after compounds addition, cells were fixed and BODIPY stained.
(5) The coverslips laid in the multi-well plates were removed, and imaged with the Zeiss 880 confocal microscope after mounted to observe the aggregation of LC3 puncta around the lipid droplets.
In MEF cells, mCherry-LC3B was expressed by cDNA plasmid transfection. At 30th hour of overexpression, OA was added into cells for lipid droplet induction. 6 hours later, the compound was added for 3 hours' treatment, and then cells were subjected to immunostaining. […] Lipid droplets (green) were stained with BODIPY stain, and nucleus were indicated with DAPI stain. […] In FIG. 24, the colocalized autophagosome-lipid droplet was marked with circles.

[8] = MST, read-out: Kd, equilibrium dissociation constant between the LC3 binding compound and LC3B

SMILES: Nc1ncnc2c1c(-c1cccc(OCc3ccccc3)c1)cn2C1CC(CN2CCCC2)C1 (centres unmarked) [Compound A10]
- Kd [1, 8]: 3.98 ± 0.537 µM

SMILES: Cc1ccc(C(=O)N(CCCN)[C@@H](c2nc3cc(Cl)ccc3c(=O)n2Cc2ccccc2)C(C)C)cc1 [Compound A8, ispinesib]
- Kd [1]: 0.462 ± 0.11 µM

SMILES: COc1ccc(-c2cc(=O)oc3c(C)c(O)c(CN(C)C)cc23)cc1 [Compound A7]
- Kd [1, 8]: 0.672 µM

SMILES: OCCCCCCCCCCBr [Linker, 10-bromo-1-decanol, reference compound]
- amount/size of lipid droplets [2]: no significant effect

SMILES: O=c1cc(-c2ccccc2)c2c(O)cc(O)cc2o1 [Compound A5, 5,7-dihydroxy-4-phenyl-2H-coumarin, reference compound]
- lipid droplets (number and size) [3]: did not significantly decrease or become smaller
- lipid droplets (number and size) [4]: did not significantly decrease or become smaller
- amount/size of lipid droplets [2]: no significant effect
- endogenous lipid droplets (amount) [5]: no significant effect
- mice died in the experiment ([6]; 30 mg/kg ip, 8 mice per group): one mouse

SMILES: O=C(O)c1cc2ccc(O)cc2oc1=O [Compound A4]
- Kd [1, 8]: 3 µM

Second part, led by results:

- Kd [1, 8]: 5.19 ± 0.282 µM
SMILES: Cc1csc(-c2nnc(Nc3ccc(Oc4ncccc4-c4ccnc(N)n4)cc3)c3ccccc23)c1 [Compound A13]

- Kd [1, 8]: 2.78 ± 0.577 µM
SMILES: COCC(=O)NC/C=C/c1ccc2ncnc(Nc3ccc(Oc4ccc(C)cc4)c(C)c3)c2c1 [Compound A11]

- Kd [1, 8]: 21.3 ± 1.69 µM
SMILES: CC(C)(C)c1cc(NC(=O)Nc2ccc(-c3cn4c(n3)sc3cc(OCCN5CCOCC5)ccc34)cc2)no1 [Compound A12]

- interaction with LC3B ([1]; MST): No interaction
SMILES: Oc1ccc2ccccc2c1/N=N/c1ccc(/N=N/c2ccccc2)cc1 [Sudan III, reference compound]
- amount/size of lipid droplets [2]: no significant effect
- TAG in liver ([6]; lipidomics): not reduced
- other major neutral lipids, cholesteryl ester (ChE) and diglyceride (DG) in liver ([6]; lipidomics): not reduced

- interaction with LC3B ([1]; MST): No interaction
SMILES: Cc1ccccc1/N=N/c1ccc(/N=N/c2c(O)ccc3ccccc23)c(C)c1 [Sudan IV, reference compound]
- lipid droplets (number and size) [3]: did not significantly decrease or become smaller
- lipid droplets (number and size) [4]: did not significantly decrease or become smaller
- amount/size of lipid droplets [2]: no significant effect
- ratio of colocalization of red and green aggregation point (autophagosome-lipid droplet) [7]: No such effect
- endogenous lipid droplets (amount) [5]: no significant effect
